The values below come from patent publication US8026359B2, “Fungicidal heterocyclic amines” (E.I. du Pont de Nemours and Company, priority 2007, dated 2011).

What all share (assay type): in vivo
The test system of one test is Septoria nodorum. Nature of the test: Test C: wheat glume blotch, preventive spray on wheat seedlings. Conditions: 200 ppm, 100 = 100% disease control, 0 = no control relative to controls; for pest or weed control at 200 ppm: Parastagonospora nodorum, 216 h, read-out: Test C disease control rating. From the text: (§1) General protocol for preparing test suspensions for Tests A-R: The test compounds were first dissolved in acetone in an amount equal to 3% of the final volume and then suspended at the desired concentration (in ppm) in acetone and purified water (50/50 mix) containing 250 ppm of the surfactant Trem® 014 (polyhydric alcohol esters). The resulting test suspensions were then used in tests A-R. In Tests A-M, compounds were sprayed as a 200 ppm test suspension (equivalent to a rate of 500 g/ha) or as a 40 ppm test suspension to the point of runoff on the test plants. In Tests N-R, compounds were sprayed as a 100 g/ha test suspension (equivalent to a rate of 100 ppm) on the test plants at an application volume of 1000 L/ha. The test suspension was sprayed to the point of run-off on wheat seedlings.

A further test concerns Fusarium graminearum. Nature of the test: whole plant or invertebrate. Particulars: for Test E disease control rating: 200 ppm, 100 = 100% disease control, 0 = no control relative to controls; for pest or weed control at 200 ppm: Fusarium graminearum, in Triticum aestivum, 192 h, read-out: Test E disease control rating.
The next test has as its system Botrytis cinerea. Nature of the test: Test F: tomato Botrytis, preventive spray on tomato seedlings. Particulars: 200 ppm, 100 = 100% disease control, 0 = no control relative to controls; for pest or weed control at 200 ppm: Botrytis cinerea, 120 h, read-out: Test F disease control rating.
Text: as §1, with “tomato” for “wheat”

The subject of a further test is Septoria tritici. Nature of the test: Test D: wheat leaf blotch, preventive spray on wheat seedlings. Particulars: 200 ppm, 100 = 100% disease control, 0 = no control relative to controls; for pest or weed control at 200 ppm: Zymoseptoria tritici, 504 h, read-out: Test D disease control rating.
Text: as §1

Test [1] concerns Puccinia recondita f. sp. tritici. Nature of the test: Test B: wheat leaf rust, preventive spray on wheat seedlings. Conditions: 200 ppm, 100 = 100% disease control, 0 = no control relative to controls; for pest or weed control at 200 ppm: Puccinia recondita, 192 h, read-out: Test B disease control rating.
Text: as §1

Test [2] concerns Colletotrichum orbiculare. The test can be described thus: Test I: cucumber Colletotrichum anthracnose, preventive spray on cucumber seedlings. Particulars: 100 = 100% disease control, 0 = no control relative to controls; for Test I disease control rating: 200 ppm; for pest or weed control at 200 ppm: Colletotrichum orbiculare, 144 h, read-out: Test I disease control rating.
Text: as §1, with “cucumber” for “wheat”

Test [3] has as its system Erysiphe graminis f. sp. tritici. The test can be described thus: Test A: wheat powdery mildew, preventive spray on wheat seedlings. Conditions: 200 ppm, 100 = 100% disease control, 0 = no control relative to controls; for pest or weed control at 200 ppm: Blumeria graminis, 192 h, read-out: Test A disease control rating.
Text: as §1

Regarding `Fc1cccc(Nc2ncnc(-c3ccnc(NC4CCOCC4)n3)n2)c1` [Compound 3], the “Test C disease control rating” value with Septoria nodorum is listed as 100%. The “Test E disease control rating” value in the test with Fusarium graminearum was 27%. In addition, the “Test F disease control rating” value with Botrytis cinerea is reported as 0%. The “Test D disease control rating” value with Septoria tritici worked out at 67%. Also, the “Test B disease control rating” value in test [1] is 96%. Also, the “Test I disease control rating” value in test [2] is reported as 94%. Besides, the “Test A disease control rating” value in test [3] is 64%.
For `Clc1cccc(Nc2ncnc(-c3ccnc(NC4CCOCC4)n3)n2)c1` [Compound 4, N-(3-chlorophenyl)-4-[2-[(tetrahydro-2H-pyran-4-yl)amino]-4-pyrimidinyl]-1,3,5-triazin-2-amine], the pest or weed control at 200 ppm is 99% in the test on Septoria nodorum; 0% in the test with Fusarium graminearum; 0% in the test with Botrytis cinerea; 11% in the test on Septoria tritici; 91% in test [1]; 66% in test [2]. Also, the pest or weed control at 200 ppm in test [3] worked out at 0%.
As to `COC[C@H](C)Nc1nccc(-c2ncnc(Nc3cncc(F)c3)n2)n1` [Compound 35], the “Test C disease control rating” value in the test with Septoria nodorum is given as 98%. For the same compound, the “Test E disease control rating” value in the test on Fusarium graminearum was determined as 98%. Further, in the test with Botrytis cinerea, the “Test F disease control rating” value came out at 91%. In addition, in the test on Septoria tritici, the “Test D disease control rating” value amounted to 7%. For the same compound, the “Test B disease control rating” value in test [1] amounted to 100%. Also, in test [3], the “Test A disease control rating” value was found to be 72%.
With `COCC(C)Nc1nccc(-c2ccnc(Nc3cccc(C(=O)OC)c3)c2)n1` (stereo not shown) [Compound 52], in the test with Septoria nodorum, the “Test C disease control rating” value is on record as 90%. Also, the “Test E disease control rating” value with Fusarium graminearum was 0%. Further, in the test on Botrytis cinerea, the “Test F disease control rating” value is 98%. The “Test D disease control rating” value with Septoria tritici came to 31%. Moreover, in test [1], the “Test B disease control rating” value was 94%. The “Test I disease control rating” value in test [2] is reported as 0%. In test [3], the “Test A disease control rating” value is recorded as 0%.
Consider `COCC(C)Nc1nccc(-c2ccnc(Nc3ccccc3F)c2)n1` (stereo not shown) [Compound 53], for which, in the test on Septoria nodorum, the “Test C disease control rating” value was 96%. In addition, in the test on Fusarium graminearum, the “Test E disease control rating” value is 0%. In the test on Botrytis cinerea, the “Test F disease control rating” value amounted to 99%. The “Test D disease control rating” value in the test on Septoria tritici turned out to be 41%. Moreover, the “Test B disease control rating” value in test [1] stood at 98%. In addition, the “Test I disease control rating” value in test [2] is recorded as 26%. Besides, in test [3], the “Test A disease control rating” value was 88%.
`COCC(C)Nc1nccc(-c2ccnc(Nc3ccnc(Cl)c3)c2)n1` (stereo not shown) [Compound 54]: the “Test C disease control rating” value in the test on Septoria nodorum amounted to 64%. Also, the “Test E disease control rating” value with Fusarium graminearum turned out to be 0%. Further, the “Test F disease control rating” value in the test on Botrytis cinerea is given as 85%. In the test with Septoria tritici, the “Test D disease control rating” value turned out to be 35%. Moreover, the “Test B disease control rating” value in test [1] is given as 96%. For the same compound, the “Test I disease control rating” value in test [2] is listed as 0%. Besides, the “Test A disease control rating” value in test [3] stood at 0%.
As for `CSCCNc1nccc(-c2ccnc(Nc3cccc(F)c3)c2)n1` [Compound 55], the “Test C disease control rating” value in the test with Septoria nodorum turned out to be 78%. The “Test E disease control rating” value with Fusarium graminearum is on record as 0%. The “Test F disease control rating” value in the test on Botrytis cinerea came out at 0%. In addition, in the test with Septoria tritici, the “Test D disease control rating” value turned out to be 20%. Further, the “Test B disease control rating” value in test [1] is 95%. Moreover, the “Test I disease control rating” value in test [2] came to 0%. Further, the “Test A disease control rating” value in test [3] stood at 0%.
Regarding `C[C@H](CO)Nc1nccc(-c2ccnc(Nc3cccc(F)c3)c2)n1` [Compound 57], the “Test C disease control rating” value with Septoria nodorum amounted to 51%. The “Test E disease control rating” value in the test on Fusarium graminearum turned out to be 0%. Besides, the “Test F disease control rating” value in the test on Botrytis cinerea was found to be 0%. For the same compound, in the test with Septoria tritici, the “Test D disease control rating” value is 9%. Also, in test [1], the “Test B disease control rating” value is reported as 95%. The “Test I disease control rating” value in test [2] is given as 0%. Also, the “Test A disease control rating” value in test [3] came to 0%.
Regarding `COCCNc1nccc(-c2ccnc(Nc3cccc(F)c3)c2)n1` [Compound 58], the “Test C disease control rating” value with Septoria nodorum turned out to be 99%. Moreover, the “Test E disease control rating” value with Fusarium graminearum is recorded as 0%. Moreover, the “Test F disease control rating” value in the test with Botrytis cinerea is 86%. In the test on Septoria tritici, the “Test D disease control rating” value worked out at 36%. Further, the “Test B disease control rating” value in test [1] was 98%. For the same compound, the “Test I disease control rating” value in test [2] is 24%. Further, in test [3], the “Test A disease control rating” value came out at 44%.
For the compound `CCCC(C)Nc1nccc(-c2ccnc(Nc3cccc(F)c3)c2)n1` (stereo not shown) [Compound 59], the “Test C disease control rating” value in the test on Septoria nodorum is given as 99%. Also, in the test with Fusarium graminearum, the “Test E disease control rating” value amounted to 0%. Besides, in the test on Botrytis cinerea, the “Test F disease control rating” value is on record as 57%. Further, the “Test D disease control rating” value in the test with Septoria tritici amounted to 0%. Besides, in test [2], the “Test I disease control rating” value is recorded as 0%. Further, in test [3], the “Test A disease control rating” value was 87%.
As to `CC(C)Nc1nccc(-c2ccnc(Nc3cccc(F)c3)c2)n1` [Compound 60], the “Test C disease control rating” value with Septoria nodorum was determined as 100%. In addition, in the test on Fusarium graminearum, the “Test E disease control rating” value came to 0%. The “Test F disease control rating” value in the test with Botrytis cinerea turned out to be 61%. Moreover, the “Test D disease control rating” value in the test on Septoria tritici amounted to 18%. Further, the “Test B disease control rating” value in test [1] is 95%. Moreover, the “Test I disease control rating” value in test [2] is given as 0%. In addition, the “Test A disease control rating” value in test [3] is on record as 97%.
`CCNc1nccc(-c2ccnc(Nc3cccc(F)c3)c2)n1` [Compound 61]: in the test with Septoria nodorum, the “Test C disease control rating” value stood at 99%. Besides, the “Test E disease control rating” value with Fusarium graminearum stood at 0%. Further, in the test on Botrytis cinerea, the “Test F disease control rating” value worked out at 0%. The “Test D disease control rating” value in the test with Septoria tritici is 32%. The “Test B disease control rating” value in test [1] was found to be 96%. Also, the “Test I disease control rating” value in test [2] stood at 0%. Moreover, the “Test A disease control rating” value in test [3] is 0%.
On to `Fc1cccc(Nc2cc(-c3ccnc(NC4CCCC4)n3)ccn2)c1` [Compound 62, N-cyclopentyl-4-[2-[(3-fluorophenyl)amino]-4-pyridinyl]-2-pyrimidinamine], for which the pest or weed control at 200 ppm worked out at 0% in the test with Septoria nodorum; 0% in the test with Fusarium graminearum; 0% with Botrytis cinerea; 14% with Septoria tritici; 94% in test [1]; 0% in test [2]. For the same compound, the pest or weed control at 200 ppm in test [3] worked out at 0%.
Turning to `COCC(C)Nc1nccc(-c2ccnc(Nc3ccc(C#N)cc3)c2)n1` (stereo not shown) [Compound 63], the “Test C disease control rating” value in the test with Septoria nodorum is 0%. Besides, the “Test E disease control rating” value with Fusarium graminearum was found to be 0%. The “Test F disease control rating” value in the test with Botrytis cinerea is given as 0%. Besides, in the test with Septoria tritici, the “Test D disease control rating” value was 41%. Besides, in test [1], the “Test B disease control rating” value was 80%. In test [2], the “Test I disease control rating” value is 90%. In test [3], the “Test A disease control rating” value came to 0%.
`COCCCNc1nccc(-c2ccnc(Nc3cccc(F)c3)c2)n1` [Compound 64]: the “Test C disease control rating” value in the test with Septoria nodorum is 97%. For the same compound, in the test on Fusarium graminearum, the “Test E disease control rating” value came out at 0%. Besides, the “Test F disease control rating” value with Botrytis cinerea is on record as 0%. In addition, the “Test D disease control rating” value with Septoria tritici stood at 95%. Further, the “Test B disease control rating” value in test [1] is on record as 94%. Moreover, the “Test I disease control rating” value in test [2] is listed as 92%. Also, in test [3], the “Test A disease control rating” value was found to be 0%.
Turning to `CCNNc1nccc(-c2ccnc(Nc3cccc(F)c3)c2)n1` [Compound 66], the “Test C disease control rating” value in the test with Septoria nodorum was 99%. Moreover, in the test with Fusarium graminearum, the “Test E disease control rating” value is on record as 64%. In addition, the “Test F disease control rating” value with Botrytis cinerea amounted to 84%. Further, in the test on Septoria tritici, the “Test D disease control rating” value stood at 92%. The “Test B disease control rating” value in test [1] stood at 85%. Also, the “Test A disease control rating” value in test [3] was 0%.
Turning to `COC[C@@H](C)Nc1nccc(-c2ccnc(Nc3cccc(F)c3)c2)n1` [Compound 68], the “Test C disease control rating” value in the test with Septoria nodorum is listed as 99%. Moreover, the “Test E disease control rating” value in the test with Fusarium graminearum came out at 0%. In the test on Botrytis cinerea, the “Test F disease control rating” value is recorded as 93%. The “Test D disease control rating” value in the test with Septoria tritici is reported as 96%. In test [1], the “Test B disease control rating” value stood at 95%. Besides, the “Test A disease control rating” value in test [3] worked out at 0%.
